± gives the standard deviation of the averaged measurements.
How the values were obtained:
Conditions in all cases: 72 h
[1] = system: HepG2; assay: drug sensitivity score (DSS) for viability; higher = more toxic; extreme values may be limits of the assay
[2] = system: Vero E6; assay: as above
[3] = system: Caco-2; assay: as above
[4] = system: Calu-3; assay: as above
[5] = system: U2OS; assay: as above
[6] = system: HepG2; assay: cell viability relative to DMSO; higher = less toxic
[7] = system: Vero E6; assay: as above
[8] = system: Caco-2; assay: as above
[9] = system: Calu-3; assay: as above
[10] = system: U2OS; assay: as above
[11] = system: HepG2; assay: relative viability EC50 (midpoint between 100% and the lowest measured viability); higher = less toxic
[12] = system: Vero E6; assay: as above
[13] = system: Caco-2; assay: as above
[14] = system: Calu-3; assay: as above
[15] = system: U2OS; assay: as above

Row | SMILES | drug sensitivity score [1] | drug sensitivity score [2] | drug sensitivity score [3] | drug sensitivity score [4] | drug sensitivity score [5] | cell viability ([6]; 1 nM) [%] | cell viability ([6]; 10 nM) [%] | cell viability ([6]; 100 nM) [%] | cell viability ([6]; 1000 nM) [%] | cell viability ([6]; 10000 nM) [%] | cell viability ([7]; 1 nM) [%] | cell viability ([7]; 10 nM) [%] | cell viability ([7]; 100 nM) [%] | cell viability ([7]; 1000 nM) [%] | cell viability ([7]; 10000 nM) [%] | cell viability ([8]; 1 nM) [%] | cell viability ([8]; 10 nM) [%] | cell viability ([8]; 100 nM) [%] | cell viability ([8]; 1000 nM) [%] | cell viability ([8]; 10000 nM) [%] | cell viability ([9]; 1 nM) [%] | cell viability ([9]; 10 nM) [%] | cell viability ([9]; 100 nM) [%] | cell viability ([9]; 1000 nM) [%] | cell viability ([9]; 10000 nM) [%] | cell viability ([10]; 1 nM) [%] | cell viability ([10]; 10 nM) [%] | cell viability ([10]; 100 nM) [%] | cell viability ([10]; 1000 nM) [%] | cell viability ([10]; 10000 nM) [%] | relative viability EC50 [11] [µM] | relative viability EC50 [12] [µM] | relative viability EC50 [13] [µM] | relative viability EC50 [14] [µM] | relative viability EC50 [15] [µM]
1 | CC(=O)Nc1cccc(Nc2ncnc(N3CCC(OCc4ccc(OC(F)(F)F)cc4)CC3)n2)c1C [TC-N-1752] | 3.4 | 0 | 0.5 | 0 | 0 | 105 | 95.8 | 93 | 104 | 31.5 | 95.8 | 102 | 100 | 94.4 | 107 | 94.7 | 97.8 | 94.5 | 101 | 80.4 | 93.9 | 102 | 87.1 | 97.8 | 107 | 96 | 98.7 | 95.2 | 94.4 | 99.3 | 3.47 | > 10 | > 10 | > 10 | > 10
2 | CN(C)CCCSC(=N)N [dimaprit] | 0 | 0 | 0 | 0 | 0 | 99 | 106 | 99.1 | 104 | 93.2 | 99.9 | 98.8 | 103 | 100 | 96.2 | 99 | 102 | 93.9 | 96.3 | 97.4 | 109 | 103 | 109 | 99.1 | 96.7 | 98.5 | 103 | 95.1 | 96.2 | 96.8 | > 10 | > 10 | > 10 | > 10 | > 10
3 | CC(C)(Oc1ccc(Cl)cc1)C(=O)O [clofibric-acid] | 0 | 0 | 0 | 0 | 0 | 93.7 | 106 | 95.6 | 105 | 96.2 | 102 | 101 | 97.7 | 93.3 | 94.2 | 95.5 | 96.6 | 101 | 99.3 | 99.1 | 94.2 | 96.5 | 100 | 92.5 | 96.2 | 101 | 95.1 | 99.9 | 94.9 | 99.2 | > 10 | > 10 | > 10 | > 10 | > 10
4 | CCCCCCCCCCCCCCCC[n+]1ccn(Cc2ccccc2)c1C [NH125] | 13.6 | 8 | 10.5 | 7 | 10.7 | 96.3 | 106 | 97.2 | 32.6 | 0 | 104 | 106 | 99.5 | 85.2 | 0.3 | 100 | 92.4 | 97 | 59.9 | 0.8 | 99.2 | 99.1 | 89.7 | 82.1 | 23.3 | 105 | 93.7 | 95.9 | 57.1 | 0.1 | 0.682 | 1.99 | 1.2 | 1.64 | 1.16
5 | CCN(CC)CCOC(=O)C1(c2ccc([N+](=O)[O-])cc2)CCCC1 [nitrocaramiphen] | 0 | 0 | 0 | 0 | 0 | 107 | 97.2 | 103 | 108 | 102 | 104 | 92.9 | 97.2 | 102 | 106 | 103 | 90.1 | 98.3 | 106 | 101 | 90 | 95.7 | 96.5 | 94 | 98.2 | 95.5 | 102 | 95.4 | 94.8 | 98.5 | > 10 | > 10 | > 10 | > 10 | > 10
6 | NCCCCCc1c[nH]cn1 [impentamine] | 0 | 0 | 0 | 0 | 0 | 96.6 | 93.9 | 103 | 97.5 | 101 | 96.6 | 99.3 | 99.9 | 93.5 | 96.9 | 98 | 97.9 | 91.6 | 97 | 91.3 | 98.3 | 99.4 | 100 | 98.5 | 91.9 | 95.7 | 102 | 96.6 | 98.3 | 95.4 | > 10 | > 10 | > 10 | > 10 | > 10
7 | NCCCCCC(=O)O [aminocaproic-acid] | 0 | 0 | 0 | 0 | 0 | 81.2 | 95 | 96.6 | 94.1 | 90.9 | 102 | 106 | 98.6 | 109 | 92.6 | 119 | 99.3 | 102 | 105 | 109 | 105 | 90.6 | 96.9 | 91.3 | 99.4 | 104 | 97.1 | 101 | 95 | 98.5 | > 10 | > 10 | > 10 | > 10 | > 10
8 | Nc1nc(=O)n([C@@H]2CS[C@H](CO)O2)cc1F [emtricitabine] | 0.4 | 0 | 0 | 0 | 0 | 104 | 105 | 102 | 97.5 | 85.5 | 102 | 102 | 99.5 | 104 | 100 | 107 | 108 | 108 | 98.8 | 109 | 104 | 88.8 | 105 | 96.2 | 110 | 97.2 | 104 | 92.1 | 98 | 98.9 | > 10 | > 10 | > 10 | > 10 | > 10
9 | CO[C@H]1/C=C/O[C@@]2(C)Oc3c(C)c(O)c4c(O)c(cc(O)c4c3C2=O)NC(=O)/C(C)=C\C=C\[C@H](C)[C@H](O)[C@@H](C)[C@@H](O)[C@@H](C)[C@H](OC(C)=O)[C@@H]1C [rifamycin-sv] | 0.25 ± 0.35 | 0 | 0 | 0 | 0 | 99.2 ± 5.4 | 92.7 ± 7.1 | 110 ± 4 | 88 ± 5.7 | 92.2 ± 7.7 | 99.5 ± 3.5 | 96.8 ± 1.3 | 99.4 ± 2.4 | 97.2 ± 2.3 | 99.3 ± 4.4 | 102.6 ± 0.71 | 101 ± 1.5 | 103 ± 2.9 | 103 ± 4.1 | 95.8 ± 5.3 | 89.1 | 90.3 | 106 | 96.5 | 97 | 101 ± 2.6 | 102 ± 3.1 | 100 | 105 ± 2.8 | 100 ± 1.8 | > 10 | > 10 | > 10 | > 10 | > 10
10 | CCN(CC)CCOC(=O)C(c1ccccc1)C1CCCCC1 (stereo not given) [drofenine] | 2.6 | 0.1 | 0 | 0 | 0 | 93.7 | 87.5 | 86.6 | 86.9 | 87.8 | 103 | 110 | 100 | 107 | 85.8 | 102 | 96 | 99.3 | 88.2 | 111 | 107 | 110 | 109 | 97.3 | 98 | 102 | 99.1 | 100 | 98.2 | 102 | > 10 | > 10 | > 10 | > 10 | > 10
11 | O=c1ccc2ccc(O)c(O)c2o1 [daphnetin] | 3.3 | 0 | 0 | 0 | 0 | 102 | 105 | 87.3 | 87.5 | 82.1 | 106 | 100 | 98.3 | 93 | 101 | 105 | 105 | 104 | 107 | 90.5 | 101 | 111 | 102 | 99.9 | 110 | 111 | 108 | 101 | 102 | 99.4 | > 10 | > 10 | > 10 | > 10 | > 10
12 | C=CC(=O)N1CCC[C@@H](n2nc(-c3ccc(Oc4ccccc4)cc3)c3c(N)ncnc32)C1 [ibrutinib] | 0 | 0 | 0 | 0 | 0 | 97 | 99.1 | 104 | 97.2 | 95.3 | 99.4 | 95.5 | 101 | 98.7 | 92.1 | 103 | 97.3 | 101 | 96.8 | 101 | 100 | 92 | 94.5 | 98.3 | 103 | 101 | 100 | 98.6 | 97.6 | 100 | > 10 | > 10 | > 10 | > 10 | > 10
13 | CC(C)c1ccc(NC(=O)Cn2cnc3c2c(=O)n(C)c(=O)n3C)cc1 | 0 | 0 | 0 | 0 | 0 | 97.3 | 106 | 93.4 | 112 | 98.5 | 91.6 | 107 | 98.7 | 102 | 101 | 100 | 96 | 92.5 | 89.1 | 95.9 | 87 | 81.2 | 92.9 | 90 | 94.8 | 99.7 | 97.2 | 101 | 100 | 98.2 | > 10 | > 10 | > 10 | > 10 | > 10
14 | C/C=C/c1cc(OC)c(OC)cc1OC [alpha-asarone] | 0 | 0 | 0 | 0 | 0 | 91.3 | 107 | 91.9 | 93.3 | 90.3 | 109 | 86.1 | 99.8 | 101 | 104 | 87.7 | 108 | 88.3 | 118 | 93.5 | 94.6 | 99.8 | 102 | 94 | 105 | 97.3 | 101 | 93.9 | 100 | 100 | > 10 | > 10 | > 10 | > 10 | > 10
